Results: publication PMC9533837 (Antiviral Research, 2003)
Values after ≈ are worked out from the molar mass of the structure shown. Read-outs that look alike come from different tables or passages of the source.

Assays:
[1] = system: VAR-GAR (1966 Brazil Garcia isolate of VAR minor); test: organism not typed; format: cell-based, variola minor; conditions: for IC50: LLC-MK2, read-out: IC50 VAR-GAR LLC-MK2
LLC-MK2 cells = conditions: rhesus monkey
[2] = system: VAR-YAM (1946 Japan Yamada isolate of VAR major); test: organism not typed; format: cell-based, variola major; conditions: for IC50: LLC-MK2, read-out: IC50 VAR-YAM LLC-MK2
CPX Brighton [3] = test: organism not typed; format: cell-based, cowpox; conditions: for IC50: LLC-MK2, read-out: IC50 CPX LLC-MK2
[4] = system: orthopoxviruses (VAR-BSH, VAR-YAM, VAR-GAR, MPX, CPX, VAC); test: organism not typed; format: cell-based
[5] = system: MPX Zaire (V79-1-005-Scab); test: organism not typed; format: cell-based, monkeypox; conditions: for IC50: Vero
[6] = system: VAR-BSH (1975 Bangladesh isolate of VAR major); test: organism not typed; format: cell-based, variola major; conditions: for IC50: Vero
[7] = system: VAR-YAM (1946 Japan Yamada isolate of VAR major); test: organism not typed; format: cell-based, variola major; conditions: for IC50: Vero
Vero cells = conditions: African green monkey
[8] = system: VAR-BSH (1975 Bangladesh isolate of VAR major); test: organism not typed; format: cell-based, variola major; conditions: for IC50: LLC-MK2, read-out: IC50 VAR-BSH LLC-MK2
[9] = system: VAR-GAR (1966 Brazil Garcia isolate of VAR minor); test: organism not typed; format: cell-based, variola minor; conditions: for IC50: Vero
VAC Copenhagen [10] = test: microbe, parasite or virus in culture; format: cell-based, vaccinia virus; conditions: for IC50: Orthopoxvirus vaccinia, Vero, read-out: IC50 VAC Vero
CPX Brighton [11] = test: organism not typed; format: cell-based, cowpox; conditions: for IC50: Vero
VAC = test: microbe, parasite or virus in culture; format: cell-based; conditions: Orthopoxvirus vaccinia, read-out: IC50 against VAC
[12] = system: MPX Zaire (V79-1-005-Scab); test: organism not typed; format: cell-based, monkeypox; conditions: for IC50: LLC-MK2, read-out: IC50 MPX LLC-MK2
VAC Copenhagen [13] = test: microbe, parasite or virus in culture; format: cell-based, vaccinia virus; conditions: for IC50: Orthopoxvirus vaccinia, LLC-MK2, read-out: IC50 VAC LLC-MK2
VAR isolate V70-222 = test: organism not typed; format: cell-based, variola; conditions: Vero, read-out: IC50, VAR isolate V70-222
VAR isolate V70-46 = test: organism not typed; format: cell-based, variola; conditions: Vero, read-out: IC50, VAR isolate V70-46
VAR isolate V73-225 = test: organism not typed; format: cell-based, variola; conditions: Vero, read-out: IC50, VAR isolate V73-225
VAR isolate Rumbec = test: organism not typed; format: cell-based, variola; conditions: Vero, read-out: IC50, VAR isolate Rumbec
VAR isolate Shahzaman = test: organism not typed; format: cell-based, variola; conditions: Vero, read-out: IC50, VAR isolate Shahzaman
VAR isolate 7125 = test: organism not typed; format: cell-based, variola; conditions: Vero, read-out: IC50, VAR isolate 7125
VAR isolate V74-227 = test: organism not typed; format: cell-based, variola; conditions: Vero, read-out: IC50, VAR isolate V74-227
VAR isolate 102 = test: organism not typed; format: cell-based, variola; conditions: Vero, read-out: IC50, VAR isolate 102
VAR isolate 7124 = test: organism not typed; format: cell-based, variola; conditions: Vero, read-out: IC50, VAR isolate 7124
VAR isolate Rafig Lahore = test: organism not typed; format: cell-based, variola; conditions: Vero, read-out: IC50, VAR isolate Rafig Lahore
VAR isolate Eth17 = test: organism not typed; format: cell-based, variola; conditions: Vero, read-out: IC50, VAR isolate Eth17
VAR isolate Jee = test: organism not typed; format: cell-based, variola; conditions: Vero, read-out: IC50, VAR isolate Jee
VAR isolate V77-1605 = test: organism not typed; format: cell-based, variola; conditions: Vero, read-out: IC50, VAR isolate V77-1605
VAR isolate Heidelberg = test: organism not typed; format: cell-based, variola; conditions: Vero, read-out: IC50, VAR isolate Heidelberg
VAR isolate V72-119 = test: organism not typed; format: cell-based, variola; conditions: Vero, read-out: IC50, VAR isolate V72-119
VAR isolate Somalia = test: organism not typed; format: cell-based, variola; conditions: Vero, read-out: IC50, VAR isolate Somalia
VAR isolate V68-59 = test: organism not typed; format: cell-based, variola minor; conditions: Vero, read-out: IC50, VAR isolate V68-59
VAR isolate Higgins = test: organism not typed; format: cell-based, variola; conditions: Vero, read-out: IC50, VAR isolate Higgins
VAR isolate K1629 = test: organism not typed; format: cell-based, variola; conditions: Vero, read-out: IC50, VAR isolate K1629
VAR isolate Minn124 = test: organism not typed; format: cell-based, variola minor; conditions: Vero, read-out: IC50, VAR isolate Minn124
VAR isolate Iran 2602 = test: organism not typed; format: cell-based, variola; conditions: Vero, read-out: IC50, VAR isolate Iran 2602
VAR isolate V73-175 = test: organism not typed; format: cell-based, variola; conditions: Vero, read-out: IC50, VAR isolate V73-175
VAR isolate Butler = test: organism not typed; format: cell-based, variola minor; conditions: Vero, read-out: IC50, VAR isolate Butler
VAR isolate Hinden = test: organism not typed; format: cell-based, variola; conditions: Vero, read-out: IC50, VAR isolate Hinden
all VAR isolates tested = test: organism not typed; format: cell-based, variola; conditions: Vero, read-out: IC50, VAR mean
VAR isolate Horn = test: organism not typed; format: cell-based, variola; conditions: Vero, read-out: IC50, VAR isolate Horn
[14] = system: DNA polymerase of CMV versus human DNA polymerase α; conditions: cited from earlier work

For CC(C)(C)C(=O)OCOP(=O)(COCCn1cnc2c(N)ncnc21)OCOC(=O)C(C)(C)C [bis-POM-PMEA, 9-[2-[[bis[(pivaloyloxy)-methoxy]phosphinyl]methoxy]ethyl]adenine], the “Therapeutic index (TI) VAR-GAR LLC-MK2” value [1] was 1.2, the IC50 [1] was 85 µg/mL (≈ 169 µM) and the “Cytotoxicity TC50 LLC-MK2” value (LLC-MK2 cells) was over 100 µg/mL. For the same compound, the “Therapeutic index (TI) VAR-YAM LLC-MK2” value [2] was 1.0, the IC50 [2] was over 100 µg/mL and the “Therapeutic index (TI) CPX LLC-MK2” value (CPX Brighton [3]) was 1.2. For the same compound, the IC50 (CPX Brighton [3]) was 86 µg/mL (≈ 171 µM), the “inhibitory activity against the orthopoxviruses tested (in words)” value [4] was “Neither PMEA nor bis-POM-PMEA was effective” and the “Therapeutic index (TI) MPX Vero” value [5] was 1.0. The IC50 ([5]; read-out: IC50 MPX Vero) was over 100 µg/mL, the “Therapeutic index (TI) VAR-BSH Vero” value [6] was 1.2 and the IC50 ([6]; read-out: IC50 VAR-BSH Vero) was 84.2 µg/mL (≈ 168 µM). The “Therapeutic index (TI) VAR-YAM Vero” value [7] was 1.0, the IC50 ([7]; read-out: IC50 VAR-YAM Vero) was over 100 µg/mL and the “Cytotoxicity TC50 Vero” value (Vero cells) was over 100 µg/mL. For the same compound, the “Therapeutic index (TI) VAR-BSH LLC-MK2” value [8] was 1.0, the IC50 [8] was over 100 µg/mL and the “Therapeutic index (TI) VAR-GAR Vero” value [9] was 1.1. The IC50 ([9]; read-out: IC50 VAR-GAR Vero) was 90 µg/mL (≈ 179 µM), the “Therapeutic index (TI) VAC Vero” value (VAC Copenhagen [10]) was 2.3 and the IC50 (VAC Copenhagen [10]) was 44 µg/mL (≈ 87.7 µM). The “Therapeutic index (TI) CPX Vero” value (CPX Brighton [11]) was 1.3, the IC50 (CPX Brighton [11]; read-out: IC50 CPX Vero) was 75.5 µg/mL (≈ 151 µM) and the IC50 (VAC) was 55.1 µg/mL (≈ 110 µM). For the same compound, the “Therapeutic index (TI) MPX LLC-MK2” value [12] was 1.0, the IC50 [12] was over 100 µg/mL and the “Therapeutic index (TI) VAC LLC-MK2” value (VAC Copenhagen [13]) was 1.5. The IC50 (VAC Copenhagen [13]) was 66.2 µg/mL (≈ 132 µM).

In the case of Nc1ccn(C[C@H]2COP(=O)(O)CO2)c(=O)n1 [cHPMPC, 1-[(S)-2-hydroxy-2-oxo-1-[4,2-dioxaphosphorinan-5-yl]methyl]cytosine], the “Therapeutic index (TI) VAR-GAR LLC-MK2” value [1] is reported as 16.9, the IC50 [1] is reported as 5.9 µg/mL (≈ 22.6 µM) and the IC50 (VAR isolate V70-222) is reported as 23 µg/mL (≈ 88.1 µM). For the same compound, the IC50 (VAR isolate V70-46) was 13 µg/mL (≈ 49.8 µM), the IC50 (VAR isolate V73-225) was 9 µg/mL (≈ 34.5 µM) and the “Cytotoxicity TC50 LLC-MK2” value (LLC-MK2 cells) was over 100 µg/mL. The “Therapeutic index (TI) VAR-YAM LLC-MK2” value [2] was 16.4, the IC50 [2] was 6.1 µg/mL (≈ 23.4 µM) and the IC50 (VAR isolate Rumbec) was 16 µg/mL (≈ 61.3 µM). For the same compound, the “Therapeutic index (TI) CPX LLC-MK2” value (CPX Brighton [3]) was 1.0, the IC50 (CPX Brighton [3]) was over 100 µg/mL and the IC50 (VAR isolate Shahzaman) was 14 µg/mL (≈ 53.6 µM). The IC50 ([4]; read-out: mean IC50 against the panel of viruses) was 21.6 ± 7.6 µg/mL (≈ 82.7 µM), the IC50 (VAR isolate 7125) was 24 µg/mL (≈ 91.9 µM) and the IC50 (VAR isolate V74-227) was 9 µg/mL (≈ 34.5 µM). The IC50 (VAR isolate 102) was 38 µg/mL (≈ 145 µM), the “Therapeutic index (TI) MPX Vero” value [5] was 6.5 and the IC50 ([5]; read-out: IC50, MPX) was 21 µg/mL (≈ 80.4 µM). It also gave an IC50 ([5]; read-out: IC50 MPX Vero) of 12.3 µg/mL (≈ 47.1 µM), an IC50 (VAR isolate 7124) of 26 µg/mL (≈ 99.6 µM) and an IC50 (VAR isolate Rafig Lahore) of 18 µg/mL (≈ 68.9 µM). For the same compound, the IC50 (VAR isolate Eth17) was 17 µg/mL (≈ 65.1 µM), the IC50 (VAR isolate Jee) was 7 µg/mL (≈ 26.8 µM) and the “Therapeutic index (TI) VAR-BSH Vero” value [6] was 3.2. The IC50 ([6]; read-out: IC50, VAR isolate Bangladesh) was 17 µg/mL (≈ 65.1 µM), the IC50 ([6]; read-out: IC50 VAR-BSH Vero) was 25.3 µg/mL (≈ 96.9 µM) and the IC50 (VAR isolate V77-1605) was 22 µg/mL (≈ 84.2 µM). The “Therapeutic index (TI) VAR-YAM Vero” value [7] was 2.8, the IC50 ([7]; read-out: IC50, VAR isolate Yamada) was 31 µg/mL (≈ 119 µM) and the IC50 ([7]; read-out: IC50 VAR-YAM Vero) was 28.2 µg/mL (≈ 108 µM). The IC50 (VAR isolate Heidelberg) was 14 µg/mL (≈ 53.6 µM), the “Cytotoxicity TC50 Vero” value (Vero cells) was 80.0 µg/mL and the “Therapeutic index (TI) VAR-BSH LLC-MK2” value [8] was 4.9. It also gave an IC50 [8] of 20.3 µg/mL (≈ 77.7 µM), an IC50 (VAR isolate V72-119) of 18 µg/mL (≈ 68.9 µM) and an IC50 (VAR isolate Somalia) of 8 µg/mL (≈ 30.6 µM). For the same compound, the IC50 (VAR isolate V68-59) was 20 µg/mL (≈ 76.6 µM), the IC50 (VAR isolate Higgins) was 17 µg/mL (≈ 65.1 µM) and the “Therapeutic index (TI) VAR-GAR Vero” value [9] was 10.1. The IC50 ([9]; read-out: IC50, VAR isolate Garcia) was 4 µg/mL (≈ 15.3 µM), the IC50 ([9]; read-out: IC50 VAR-GAR Vero) was 7.9 µg/mL (≈ 30.2 µM) and the “Therapeutic index (TI) VAC Vero” value (VAC Copenhagen [10]) was 4.4. For the same compound, the IC50 (VAC Copenhagen [10]) was 18.1 µg/mL (≈ 69.3 µM), the “Therapeutic index (TI) CPX Vero” value (CPX Brighton [11]) was 3.0 and the IC50 (CPX Brighton [11]; read-out: IC50, CPX) was 52 µg/mL (≈ 199 µM). For the same compound, the IC50 (CPX Brighton [11]; read-out: IC50 CPX Vero) was 26.9 µg/mL (≈ 103 µM), the IC50 (VAR isolate K1629) was 25 µg/mL (≈ 95.7 µM) and the IC50 (VAR isolate Minn124) was 9 µg/mL (≈ 34.5 µM). For the same compound, the IC50 (VAR isolate Iran 2602) was 7 µg/mL (≈ 26.8 µM), the “Therapeutic index (TI) MPX LLC-MK2” value [12] was 29.4 and the IC50 [12] was 3.4 µg/mL (≈ 13 µM). For the same compound, the IC50 (VAR isolate V73-175) was 16 µg/mL (≈ 61.3 µM), the IC50 (VAR isolate Butler) was 6 µg/mL (≈ 23 µM) and the IC50 (VAR isolate Hinden) was 19 µg/mL (≈ 72.7 µM). For the same compound, the IC50 (all VAR isolates tested) was 17 ± 2 µg/mL (≈ 65.1 µM), the IC50 (VAR isolate Horn) was 12 µg/mL (≈ 45.9 µM) and the “Therapeutic index (TI) VAC LLC-MK2” value (VAC Copenhagen [13]) was 22.7. For the same compound, the IC50 (VAC Copenhagen [13]) was 4.4 µg/mL (≈ 16.8 µM).

In the case of Nc1ccn(CC(CO)OCP(=O)(O)OP(=O)(O)OP(=O)(O)O)c(=O)n1 (stereo not drawn) [Cidofovir diphosphate, cidofovir 5′-diphosphate], the “lower concentration inhibiting DNA polymerase of CMV than human DNA polymerase α” value [14] is given as 10 fold.
